Assay results published in patent US20230073125A1, “PERIODONTAL MICROPATCH AND USES THEREOF” (priority 2019, published 2023).

How the values were obtained:
[1] = system: M1 (and M0) macrophages; experiment: Macrophage polarization, transwell, flow cytometry and qPCR; type: cell-based, rat; details: treatment with IL-4; qPCR of markers and cytokines
Description: Costar transwell inserts (pore size 1 μm) was used for assessing the effectiveness of the released factor(s) on the polarization of macrophages and differentiation of T cells. Patches containing cytokines (4 experimental groups: no drug, IL-4 alone, TGF-β alone and IL-4/TGF-β) placed in the upper chamber. The bottom chamber contains artificial saliva modified media and 10^5 of either primary monocytes or naïve T cells or both (5×10^4). The isolation of primary monocytes was performed as described. Naïve T cells isolated using EasySep Rat T Cell Isolation Kit (STEMCELL Technologies) according to manufacturer's protocol. The change in macrophage phenotypes tested at different time points (day 1-5) using flow cytometry by checking the surface markers (M1): major histocompatibility complex class II (MHC II), CCR7, CD80 and CD86; M2: CD163 (M2c) and CD206 (M2a)). […] Quantitative PCR (qPCR) was used to determine the gene expression of these inflammatory cytokines and cellular markers (as exemplified in FIG. 11D). […] The expression of Foxp3 was measured by flow cytometry. […]
Costar transwell inserts (pore size 1 μm) were used to assess the effectiveness of released factor(s) on macrophage polarization and T cell differentiation. […] Quantitative PCR (qPCR) was used to determine gene expression of inflammatory cytokines and cellular markers (as exemplified in FIG. 23A-23B). […]

[2] = system: periodontal disease; details: 40 ng local administration per treatment, rat model; cited from earlier work
[3] = Cytokine loading and release from microparticles/microneedles in artificial saliva, ELISA; type: physicochemical; details: 37° C., up to four weeks
Source text: For high quality periodontal treatment, the periodontal patch should act as an immunomodulator by delivering small molecules drugs and/or bioactive molecules to control infection (e.g., with antibiotics), modulate inflammation (e.g., FIG. 11A) and induce the recovery of alveolar bone. Here we used same method as described in Approach 1 to fabricate microneedles (FIG. 10A). IL-4- or TGF-β-loaded silica-heparin microparticles mixed with polymer (e.g., alginate) solution and cast into the molds to generate the microneedle patches. […] At selected time intervals (every 12 hour), the medium was collected and analyzed for released proteins using ELISA Kits. At the end of release study, the remaining proteins extracted from the particles/needles by dissolving them and the percentage of cumulative released proteins measured according to methods explained before. The released percentage measured based on the ratio of the amount released at each time point to the amount that was initially loaded. […]
The microneedle chemical formulation can be further modified for co-encapsulation of both small molecule antibiotics (encapsulated in PLGA NPs) and cytokines (encapsulated in alginate-heparin microparticles), which was integrated and addressed in Aim 3. […] At selected time intervals (every 12 hours), media was collected and analyzed for released proteins using ELISA. […]

[4] = system: naïve CD4+ T-cells; experiment: Induced Treg differentiation, Foxp3/CD25 by flow cytometry; type: cell-based, rat; details: soluble (no particles) TGF-β
Description: Activation and differentiation of T cells were tested by considering expression of CD25 surface activation marker (FIG. 11C) as well as intracellular expression of the transcription factor Foxp3. […] We also tested the ability of controlling differentiation of naïve T-cells into induced Treg by providing sustained release TGF-β from alginate-based particles. We cultured rigorously naïve CD4+ T-cells with anti-CD3 and anti-CD28 for 4 days in the wells containing the microparticles loaded with TGF-β at different concentrations and compared them to the soluble (no particles) counterparts at identical concentrations. The expression of Foxp3 was measured by flow cytometry. […] T cell activation and differentiation was tested by expression of CD25 surface activation marker and intracellular expression of the transcription factor Foxp3.

Row | Substance | macrophage reprogramming [1] | bone regeneration [2] | periodontal disease progression [2] | cytokine release from designed platforms [3] | Foxp3 expression at very high soluble concentrations [4]
1 | interleukin 4 [IL-4] | successful reprograming of M1 (and M0) macrophages toward M2 | helps regenerate bone | reduces periodontal disease progression | prolonged release | 
2 | transforming growth factor beta [TGF-β] |  |  |  | prolonged release | plateaued and was even slightly suppressed
